# Literature values as cited in patent publication US20240130371A1, “ENVIRONMENTAL PROTECTION SYSTEMS AND METHODS OF GREENHOUSE GAS CAPTURE VIA CALCIUM HYDROXIDE” (priority 2021, published 2024).
# Conditions: common coronavirus killers
smiles,measurement,value
CC(C)O [isopropyl alcohol],pH,around 8
